This passage reports IC50 results from patent US11339130B1 (Blade Therapeutics, Inc., priority 2016, dated 2022).

The subject of assay [1] is Calpain activity in SH-SY5Y cells. Put plainly: SH-SY5Y + AMC fluorescence assay (Suc-LLVY-AMC substrate). Particulars: Column E, read-out: SH-SY5Y + AMC IC50. It counts as cell-based.
For the next assay, the target named is T1, Human Calpain 1/NS1 (Homo sapiens, UniProt P07384).
T1 sequence (P07384 1-714): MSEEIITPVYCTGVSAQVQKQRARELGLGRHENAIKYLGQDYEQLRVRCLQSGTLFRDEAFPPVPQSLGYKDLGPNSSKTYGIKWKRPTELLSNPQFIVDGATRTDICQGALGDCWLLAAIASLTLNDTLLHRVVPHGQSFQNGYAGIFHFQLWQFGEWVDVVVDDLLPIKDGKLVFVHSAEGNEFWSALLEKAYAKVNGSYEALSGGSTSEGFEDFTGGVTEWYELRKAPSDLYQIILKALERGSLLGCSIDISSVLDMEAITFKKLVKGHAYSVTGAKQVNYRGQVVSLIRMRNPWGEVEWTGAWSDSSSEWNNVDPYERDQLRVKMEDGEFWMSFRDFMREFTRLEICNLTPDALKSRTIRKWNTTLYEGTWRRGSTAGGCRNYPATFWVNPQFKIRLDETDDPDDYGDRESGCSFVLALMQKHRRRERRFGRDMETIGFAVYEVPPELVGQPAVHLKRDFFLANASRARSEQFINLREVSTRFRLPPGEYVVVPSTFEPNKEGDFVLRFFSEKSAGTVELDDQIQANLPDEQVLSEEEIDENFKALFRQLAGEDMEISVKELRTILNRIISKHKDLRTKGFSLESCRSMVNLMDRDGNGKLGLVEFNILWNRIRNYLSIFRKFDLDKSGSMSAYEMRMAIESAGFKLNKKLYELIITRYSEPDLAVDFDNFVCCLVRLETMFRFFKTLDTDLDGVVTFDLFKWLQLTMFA
T1 sequence (P04632 1-268 partner): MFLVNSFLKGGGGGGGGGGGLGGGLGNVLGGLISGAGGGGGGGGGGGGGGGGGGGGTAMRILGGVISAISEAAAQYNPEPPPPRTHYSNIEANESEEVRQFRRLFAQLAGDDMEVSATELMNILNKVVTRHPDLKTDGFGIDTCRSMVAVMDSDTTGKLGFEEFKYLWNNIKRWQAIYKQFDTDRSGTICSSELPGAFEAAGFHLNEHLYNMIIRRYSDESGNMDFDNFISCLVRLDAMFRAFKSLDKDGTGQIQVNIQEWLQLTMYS
Put plainly: Calpain inhibition continuous fluorescence (FRET) assay, Human Calpain 1/NS1. The assay is classed as biochemical. The settings on record: Column A; read-out: Human Calpain 1/NS1 IC50. An outline of the steps: (§1)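 Continuous FRET read (ex 490/em 520 nm, 10 min) of calpain 1, 2 or 9 cleaving an internally quenched 5-FAM peptide, triggered by substrate with CaCl2 after enzyme–inhibitor incubation at ambient 25 °C, pH 7.5 Tris/NaCl/DTT buffer. IC50 from initial rates (1-5 min) via 4-parameter fit.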

In assay [2] the test system is Calpain activity in SH-SY5Y cells (SBDP-150). Put plainly: SH-SY5Y Spectrin western blot assay (SBDP-150 breakdown product, A23187-induced). It counts as cell-based. The settings on record: Homo sapiens; Column D; SH-SY5Y cells, A23187-induced SBDP-150; read-out: SH-SY5Y Spectrin IC50. (In general: Immunoblotting shows a protein as a band on a membrane.)
A further assay concerns the target T2, Human Calpain 9/NS1 (Homo sapiens, UniProt O14815).
T2 sequence (O14815 1-690): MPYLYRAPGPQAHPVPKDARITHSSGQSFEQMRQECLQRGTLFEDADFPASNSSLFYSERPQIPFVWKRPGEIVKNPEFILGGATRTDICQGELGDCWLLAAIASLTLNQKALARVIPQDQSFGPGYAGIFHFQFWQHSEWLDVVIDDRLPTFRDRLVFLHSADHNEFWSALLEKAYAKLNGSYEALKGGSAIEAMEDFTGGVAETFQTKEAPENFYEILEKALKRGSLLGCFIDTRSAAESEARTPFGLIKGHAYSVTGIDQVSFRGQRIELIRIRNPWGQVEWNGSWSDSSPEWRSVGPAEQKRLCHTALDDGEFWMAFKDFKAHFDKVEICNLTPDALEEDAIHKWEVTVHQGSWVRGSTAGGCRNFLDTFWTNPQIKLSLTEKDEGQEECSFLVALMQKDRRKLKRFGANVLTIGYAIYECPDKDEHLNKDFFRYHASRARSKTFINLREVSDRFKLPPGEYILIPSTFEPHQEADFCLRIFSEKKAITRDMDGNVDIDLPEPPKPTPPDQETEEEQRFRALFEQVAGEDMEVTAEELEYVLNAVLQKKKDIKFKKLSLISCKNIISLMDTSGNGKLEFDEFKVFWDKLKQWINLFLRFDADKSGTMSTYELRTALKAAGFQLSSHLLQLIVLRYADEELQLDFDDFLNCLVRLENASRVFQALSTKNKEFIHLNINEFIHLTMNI
T2 sequence (P04632 1-268 partner): T1 sequence (P04632 1-268 partner)
Kind of assay: Calpain inhibition continuous fluorescence (FRET) assay, Human Calpain 9/NS1. The assay is classed as biochemical. Particulars: Column C; read-out: Human Calpain 9/NS1 IC50. An outline of the steps:
as §1

A further assay deals with T3, Human Calpain 2/NS1 (Homo sapiens, UniProt P17655).
T3 sequence (P17655 1-700): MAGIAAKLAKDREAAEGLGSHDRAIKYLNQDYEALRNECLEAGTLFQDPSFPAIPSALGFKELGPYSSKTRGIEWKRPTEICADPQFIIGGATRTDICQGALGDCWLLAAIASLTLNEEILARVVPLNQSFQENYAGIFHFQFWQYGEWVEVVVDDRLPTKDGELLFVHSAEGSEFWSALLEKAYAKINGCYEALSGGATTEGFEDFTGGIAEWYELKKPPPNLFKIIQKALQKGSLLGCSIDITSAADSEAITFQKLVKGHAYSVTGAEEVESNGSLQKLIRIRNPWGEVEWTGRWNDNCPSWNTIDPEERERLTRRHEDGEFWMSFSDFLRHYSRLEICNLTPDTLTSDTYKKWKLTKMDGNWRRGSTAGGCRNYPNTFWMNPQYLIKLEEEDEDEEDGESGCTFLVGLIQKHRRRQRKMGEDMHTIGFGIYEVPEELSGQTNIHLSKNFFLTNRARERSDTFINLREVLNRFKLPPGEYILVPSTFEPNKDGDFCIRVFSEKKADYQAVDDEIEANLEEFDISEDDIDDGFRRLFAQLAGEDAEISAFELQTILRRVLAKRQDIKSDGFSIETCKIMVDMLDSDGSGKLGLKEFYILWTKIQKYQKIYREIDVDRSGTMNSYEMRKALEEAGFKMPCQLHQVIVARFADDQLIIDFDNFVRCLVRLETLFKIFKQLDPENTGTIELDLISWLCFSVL
T3 sequence (P04632 1-268 partner): T1 sequence (P04632 1-268 partner)
Kind of assay: Calpain inhibition continuous fluorescence (FRET) assay, Human Calpain 2/NS1. It counts as biochemical. Particulars: Column B; read-out: Human Calpain 2/NS1 IC50. In a few lines:
as §1

For `Cc1cc(C(=O)N[C@@H](Cc2ccccc2)C(=O)C(N)=O)n(-c2cccc(-c3ccccc3C)c2)n1` [Compound 81, (S)—N-(4-amino-3,4-dioxo-1-phenylbutan-2-yl)-3-methyl-1-(2′-methyl-[1,1′-biphenyl]-3-yl)-1H-pyrazole-5-carboxamide], the IC50 was 10 to 25 µM in assay [1]; below 3 µM at Human Calpain 1/NS1; below 10 µM in assay [2]; below 3 µM on Human Calpain 9/NS1; below 3 µM at Human Calpain 2/NS1.
For `Cc1cc(C(=O)N[C@@H](Cc2ccccc2)C(=O)C(N)=O)n(-c2nc(-c3ccccc3)cs2)n1` [Compound 82, (S)—N-(4-amino-3,4-dioxo-1-phenylbutan-2-yl)-3-methyl-1-(4-phenylthiazol-2-yl)-1H-pyrazole-5-carboxamide], the IC50 in assay [1] was above 25 µM; on Human Calpain 1/NS1, below 3 µM; in assay [2], below 10 µM; at Human Calpain 9/NS1, below 3 µM; at Human Calpain 2/NS1 it was below 3 µM.
Regarding `Cc1cc(C(=O)N[C@@H](Cc2ccccc2)C(=O)C(N)=O)n(-c2ccc(-c3ccccc3)cc2)n1` [Compound 83, (S)-1-([1,1′-biphenyl]-4-yl)-N-(4-amino-3,4-dioxo-1-phenylbutan-2-yl)-3-methyl-1H-pyrazole-5-carboxamide], the IC50 in assay [1] is above 25 µM; on Human Calpain 1/NS1 it was below 3 µM; in assay [2], below 10 µM; on Human Calpain 9/NS1 it was below 3 µM; on Human Calpain 2/NS1, below 3 µM.
For `Cc1cccc(-n2nc(C)cc2C(=O)N[C@@H](Cc2ccccc2)C(=O)C(N)=O)n1` [Compound 84, (S)—N-(4-amino-3,4-dioxo-1-phenylbutan-2-yl)-3-methyl-1-(6-methylpyridin-2-yl)-1H-pyrazole-5-carboxamide], the IC50 in assay [1] is below 10 µM; at Human Calpain 1/NS1, below 3 µM; in assay [2], below 10 µM; on Human Calpain 9/NS1, below 3 µM; on Human Calpain 2/NS1 it was below 3 µM.
For `COc1cccc(-n2nc(C)cc2C(=O)N[C@@H](Cc2ccccc2)C(=O)C(N)=O)n1` [Compound 99, (S)—N-(4-amino-3,4-dioxo-1-phenylbutan-2-yl)-1-(6-methoxypyridin-2-yl)-3-methyl-1H-pyrazole-5-carboxamide], the IC50 is 10 to 25 µM in assay [1]; below 3 µM on Human Calpain 1/NS1; 10 to 25 µM in assay [2]; below 3 µM at Human Calpain 9/NS1; below 3 µM on Human Calpain 2/NS1.
In the case of `Cc1cc(C(=O)N[C@@H](Cc2ccccc2)C(=O)C(N)=O)n(-c2cccc(-c3ccc(F)cc3)c2)n1` [Compound 103, (S)—N-(4-amino-3,4-dioxo-1-phenylbutan-2-yl)-1-(4′-fluoro-[1,1′-biphenyl]-3-yl)-3-methyl-1H-pyrazole-5-carboxamide], the IC50 was above 25 µM in assay [1]; below 3 µM at Human Calpain 1/NS1; above 25 µM in assay [2]; below 3 µM on Human Calpain 9/NS1; below 3 µM at Human Calpain 2/NS1.
As to `Cc1cccc(-c2cccc(-n3nc(C)cc3C(=O)N[C@@H](Cc3ccccc3)C(=O)C(N)=O)c2)c1` [Compound 105, (S)—N-(4-amino-3,4-dioxo-1-phenylbutan-2-yl)-3-methyl-1-(3′-methyl-[1,1′-biphenyl]-3-yl)-1H-pyrazole-5-carboxamide], the IC50 in assay [1] was above 25 µM; on Human Calpain 1/NS1, below 3 µM; in assay [2], above 25 µM; on Human Calpain 9/NS1, below 3 µM; at Human Calpain 2/NS1, below 3 µM.
`Cc1cc(C(=O)N[C@@H](Cc2ccccc2)C(=O)C(N)=O)n(-c2cccc(-c3cccc(F)c3)c2)n1` [Compound 106, (S)—N-(4-amino-3,4-dioxo-1-phenylbutan-2-yl)-1-(3′-fluoro-[1,1′-biphenyl]-3-yl)-3-methyl-1H-pyrazole-5-carboxamide]: the IC50 in assay [1] was above 25 µM; on Human Calpain 1/NS1, below 3 µM; in assay [2], below 10 µM; on Human Calpain 9/NS1, below 3 µM; on Human Calpain 2/NS1, below 3 µM.
